Assay [1] has as its target fXIa (Homo sapiens, UniProt P03951). The assay is described as follows: IC50 on human blood coagulation factor fXIa. It is filed as biochemical. Particulars: 3.3 nM enzyme. The protocol: The measurements were done using non-binding microtiter plates (Greiner; #655901) in 100 μL final volume. After some pilot experiments to find the proper inhibitor concentration range, the maximal inhibitor concentration was set to 20 μM for MASP-1, 10 μM for fXIa and 40 μM for fIXa and fXIIa inhibition, and twofold serial dilutions were prepared from the proteins of the present invention. To these solutions, […] to reach a previously optimized final concentration, 10 nM for MASP-1, 50 nM for fIXa, 3.3 nM for fXIa and 27.5 nM for fXIIa.
The samples were incubated for 10 minutes at room temperature. After adding the substrate (150 μM Z-Lys-S-Benzyl and 300 μM 4,4′-dithiodipyridine (DTDP) co-substrate for MASP-1; 150 μM Z-Gly-Arg-S-Benzyl and 300 μM DTDP co-substrate for fIXa; 300 μM Cbz-GPR-pNA for fXIa and 100 μM H-D-PFR-pNA for fXIIa). The reaction buffer was 50 mM Tris-HCl, 150 mM NaCl, 5 mM CaCl2), 0.1% PEG-8000 pH 7.4 for MASP-1; 20 mM HEPES, 145 mM NaCl, 0.05% Triton-X100 pH 7.4 for fIXa and fXIa; which was complemented with 5 mM CaCl2) for fXIIa.
The efficacies of the proteins of the present invention were determined in the form of (IC50) values corresponding to inhibitor concentrations that provide 50% inhibition.

Assay [2] deals with T1, human MASP-2 catalytic fragment (Homo sapiens, UniProt O00187).
T1 construct: catalytic enzyme fragments containing the three C-terminal domains: CCP1-CCP2-SP; made in house
The assay is described as follows: Surface plasmon resonance kinetics and affinity on immobilized human MASP-2 catalytic fragment. It is filed as binding. A general note: Surface plasmon resonance follows binding to a sensor surface in real time, without labels.

In assay [3] the target is T2, human MASP-2cf (Homo sapiens, UniProt O00187).
T2 construct: catalytic enzyme fragments containing the three C-terminal domains: CCP1-CCP2-SP; made in house
As to the kind of experiment: Equilibrium inhibition constant (KI) on human MASP-2 catalytic fragment, Z-L-Lys-SBzl substrate. It is filed as biochemical.

Read-outs that look alike come from different tables or passages of the source. Bridges are numbered along the chain shown (N, C = ends). Where no end group is shown, it is not given here.

fXIa, sequence (P03951 388-625 limits assumed): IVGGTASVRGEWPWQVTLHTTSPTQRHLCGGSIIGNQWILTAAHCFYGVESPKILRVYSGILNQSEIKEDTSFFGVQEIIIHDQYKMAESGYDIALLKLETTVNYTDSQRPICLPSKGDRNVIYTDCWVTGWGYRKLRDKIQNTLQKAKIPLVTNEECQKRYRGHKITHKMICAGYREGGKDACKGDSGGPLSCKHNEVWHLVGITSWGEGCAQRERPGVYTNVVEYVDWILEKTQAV
fXIa, sequence (P03951 19-387 partner limits assumed): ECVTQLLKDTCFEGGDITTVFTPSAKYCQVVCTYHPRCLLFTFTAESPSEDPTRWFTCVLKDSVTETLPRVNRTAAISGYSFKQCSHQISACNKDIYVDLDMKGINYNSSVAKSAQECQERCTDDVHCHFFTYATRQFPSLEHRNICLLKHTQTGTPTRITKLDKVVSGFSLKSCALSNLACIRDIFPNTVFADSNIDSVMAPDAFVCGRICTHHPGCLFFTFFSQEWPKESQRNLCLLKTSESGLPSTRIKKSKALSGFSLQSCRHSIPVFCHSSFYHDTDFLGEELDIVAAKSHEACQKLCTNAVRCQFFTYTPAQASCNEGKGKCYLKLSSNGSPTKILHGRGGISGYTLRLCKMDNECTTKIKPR

Broadly, the IC50 is the concentration at which inhibition is half-maximal. A higher IC50 goes with a need for much substance. On to “KPDFCFLENDPGPCRALKRRYFYNNQTKQCERFYYGGCLGNMNNFETLEECKNICEDG (disulfide 5-55, 14-38, 30-51) [EVO24]”, for which half-maximal inhibition in assay [1] (IC50) was put at 500 nM.

The Kd is the equilibrium constant for the complex coming apart. For “KPDFCFLENDPGPCRAAKRRYFYNNQTKQCERFYYGGCLGNMNNFVTLEECKNICEDG (disulfide 5-55, 14-38, 30-51) [EVO22a]”, in assay [2] (Human MASP-2 catalytic fragment, SPR, read-out: KD), the Kd stood at 0.045 nM.

One may read the Ki as a dissociation constant, usually derived from enzyme kinetics or from competition with a known ligand. In the case of “KPDFCFLENDPGPCRALKRRYFYNNQTKQCERFYYGGCFGNMNNFETLEECKNICEDG (disulfide 5-55, 14-38, 30-51) [EVO25]”, the Ki in assay [3] was 0.17 ± 0.04 nM.

Turning to “KPDFCFLENDPGLCRAAAVRYFYNNQTKQCERFYYGGCLGNMNNFVTLEECKNICEDG (disulfide 5-55, 14-38, 30-51) [EVO222]”, the equilibrium dissociation constant (Kd) in assay [2] was 0.045 nM.

As to “KPDFCFLENDPGPCRALKRRYFYNNQTKQCERFYYGGCFGNMNNFVTLEECKNICEDG (disulfide 5-55, 14-38, 30-51) [EVO23]”, in assay [1], half-maximal inhibition (IC50) required 500 nM.

With “KPDFCFLENDPGPCRAAAVRYFYNNQTKQCERFYYGGCLGNMNNFVTLEECKNICEDG (disulfide 5-55, 14-38, 30-51) [EVO223]”, the inhibitory constant (Ki) in assay [3] (5 nM enzyme, read-out: KI values human MASP-2cf) turned out to be 0.17 ± 0.07 nM.
